According to US6706663B2, “Herbicidal 3-heterocyclic substituted benzisothiazole and benzisoxazole compounds” (Wyeth, priority 2000, dated 2004):

Tests used:
[1] = tested on: GLXMAW (Soybean, Williams); assay: Postemergence herbicidal evaluation; type: in vivo, Glycine max, (L.) Merr. cv Williams
How it was run: (§1)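 Visual 0–9 injury scores versus control plants, covering stand, vigour, malformation, size, chlorosis and general appearance, taken four to five weeks post-spray and averaged over replicate tests. Plants were sprayed at roughly two weeks old and held on greenhouse benches.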

[2] = tested on: TRZAWR (Wheat, Winter, cv Riband); assay: Preemergence herbicidal evaluation; type: in vivo, Triticum aestivum; details: preemergence, rated 4-5 weeks after treatment
How it was run: (§2)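 Rating 0–9, visual, vs control; 4–5 wk after spraying seeded cups with compound in aq. acetone; conventional greenhouse care.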

ZEAMX (Corn, Field) [3] = assay: Preemergence herbicidal evaluation; type: in vivo, Zea mays, L.; details: preemergence, rated 4-5 weeks after treatment
CYPIR (Cyperus iria) = assay: Flooded paddy, preemergence weed control; type: in vivo; details: rated 3-4 weeks after treatment, 0-9 rating scale
How it was run: (§3)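 Flooded silt loam pots, seeds in upper 0.5 cm, water held 1.5–3 cm deep; greenhouse; visual 0-9 score vs control.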

[4] = tested on: ABUTH (Abutilon theophrasti); assay: Postemergence herbicidal evaluation; type: in vivo, Medic.
How it was run: as §1

ORYSAT (Rice, Tebonnet) = assay: Preemergence herbicidal evaluation; type: in vivo, Oryza sativa, (L.) Tebonnet; details: preemergence, rated 4-5 weeks after treatment
[5] = tested on: GLXMAW (Soybean, Williams); assay: Preemergence herbicidal evaluation; type: in vivo, Glycine max, (L.) Merr. cv Williams; details: preemergence, rated 4-5 weeks after treatment
ZEAMX (Corn, Field) [6] = assay: Postemergence herbicidal evaluation; type: in vivo, Zea mays, L.
How it was run: as §1

[7] = tested on: ECHORC (Echinochloa oryzoides); assay: Flooded paddy, preemergence weed control; type: in vivo, Echinochloa oryzoides (Ard.) Fritsch.; details: rated 3-4 weeks after treatment, 0-9 rating scale
How it was run: as §3

[8] = tested on: IPOHE (Ipomoea hederacea); assay: Postemergence herbicidal evaluation; type: in vivo, (L.) Jacq.
How it was run: as §1

[9] = tested on: CYPSE (Cyperus serotinus); assay: Flooded paddy, preemergence weed control; type: in vivo, Rottb.; details: rated 3-4 weeks after treatment, 0-9 rating scale
How it was run: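 Seeds or propagules were planted 0.5 cm deep in silt loam and flooded to 1.5–3 cm. Compounds in 50/50 v/v aqueous/acetone were pipetted into the flood water at about 0.0080 to 0.1250 kg/ha. After 3–4 weeks in the greenhouse, effect was rated visually on a 0–9 scale versus untreated control.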

GALAP (Galium aparine) [10] = assay: Preemergence herbicidal evaluation; type: in vivo; details: preemergence, rated 4-5 weeks after treatment
How it was run: as §2

GALAP (Galium aparine) [11] = assay: Postemergence herbicidal evaluation; type: in vivo
How it was run: as §1

[12] = tested on: ECHCG (Echinochloa crus-galli); assay: Postemergence herbicidal evaluation; type: in vivo, (L.) Beau
How it was run: as §1

[13] = tested on: SAGPY (Sagittaria pygmaea); assay: Flooded paddy, preemergence weed control; type: in vivo, L.; details: rated 3-4 weeks after treatment, 0-9 rating scale
How it was run: as §3

[14] = tested on: AMBEL (Ambrosia artemisifolia); assay: Preemergence herbicidal evaluation; type: in vivo, L.; details: preemergence, rated 4-5 weeks after treatment
How it was run: as §2

[15] = tested on: CASOB (Cassia obtusifolia); assay: Preemergence herbicidal evaluation; type: in vivo, L.; details: preemergence, rated 4-5 weeks after treatment
How it was run: as §2

[16] = tested on: CHEAL (Chenopodium album); assay: Preemergence herbicidal evaluation; type: in vivo, L.; details: preemergence, rated 4-5 weeks after treatment
How it was run: as §2

[17] = tested on: AMBEL (Ambrosia artemisifolia); assay: Postemergence herbicidal evaluation; type: in vivo, L.
How it was run: as §1

[18] = tested on: CASOB (Cassia obtusifolia); assay: Postemergence herbicidal evaluation; type: in vivo, L.
How it was run: as §1

[19] = tested on: CHEAL (Chenopodium album); assay: Postemergence herbicidal evaluation; type: in vivo, L.
How it was run: as §1

[20] = tested on: IPOHE (Ipomoea hederacea); assay: Preemergence herbicidal evaluation; type: in vivo, (L.) Jacq.; details: preemergence, rated 4-5 weeks after treatment

In the case of `Cc1nnc(-c2nsc3ccc(-n4c(=O)cc(C(F)(F)F)n(C)c4=O)cc23)s1` [Compound 17, 1-methyl-3-[3-(5-methyl-1,3,4-thiadiazol-2-yl)-1,2-benzisothiazol-5-yl]-6-(trifluoromethyl)uracil], the “Postemergence herbicidal rating, GLXMAW” value ([1]; rate 0.0320 kg/ha) is reported as 5.0, the “Postemergence herbicidal rating, GLXMAW” value ([1]; rate 0.0620 kg/ha) is reported as 6.5 and the “Postemergence herbicidal rating, GLXMAW” value ([1]; rate 0.1250 kg/ha) is reported as 8.0. For the same compound, the “Postemergence herbicidal rating, GLXMAW” value ([1]; rate 0.2500 kg/ha) was 8.5, the “TRZAWR preemergence herbicidal rating” value ([2]; Rate 0.0620 kg/ha) was 0.0 and the “TRZAWR preemergence herbicidal rating” value ([2]; Rate 0.1250 kg/ha) was 0.0. The “TRZAWR preemergence herbicidal rating” value ([2]; Rate 0.2500 kg/ha) was 5.0, the “ZEAMX preemergence herbicidal rating” value (ZEAMX (Corn, Field) [3]; Rate 0.0620 kg/ha) was 6.0 and the “ZEAMX preemergence herbicidal rating” value (ZEAMX (Corn, Field) [3]; Rate 0.1250 kg/ha) was 7.0. For the same compound, the “ZEAMX preemergence herbicidal rating” value (ZEAMX (Corn, Field) [3]; Rate 0.2500 kg/ha) was 8.0, the “herbicidal rating, CYPIR” value (CYPIR (Cyperus iria); rate 0.0080 kg/ha) was 0.0 and the “herbicidal rating, CYPIR” value (CYPIR (Cyperus iria); rate 0.0320 kg/ha) was 3.5. For the same compound, the “herbicidal rating, CYPIR” value (CYPIR (Cyperus iria); rate 0.1250 kg/ha) was 7.0, the “Postemergence herbicidal rating, ABUTH” value ([4]; rate 0.0320 kg/ha) was 9.0 and the “Postemergence herbicidal rating, ABUTH” value ([4]; rate 0.0620 kg/ha) was 9.0. The “Postemergence herbicidal rating, ABUTH” value ([4]; rate 0.1250 kg/ha) was 9.0, the “Postemergence herbicidal rating, ABUTH” value ([4]; rate 0.2500 kg/ha) was 9.0 and the “ORYSAT preemergence herbicidal rating” value (ORYSAT (Rice, Tebonnet); Rate 0.0620 kg/ha) was 0.0. The “ORYSAT preemergence herbicidal rating” value (ORYSAT (Rice, Tebonnet); Rate 0.1250 kg/ha) was 0.0, the “ORYSAT preemergence herbicidal rating” value (ORYSAT (Rice, Tebonnet); Rate 0.2500 kg/ha) was 1.0 and the “GLXMAW preemergence herbicidal rating” value ([5]; Rate 0.0620 kg/ha) was 0.0. For the same compound, the “GLXMAW preemergence herbicidal rating” value ([5]; Rate 0.1250 kg/ha) was 3.0, the “GLXMAW preemergence herbicidal rating” value ([5]; Rate 0.2500 kg/ha) was 5.0 and the “Postemergence herbicidal rating, ZEAMX” value (ZEAMX (Corn, Field) [6]; rate 0.0320 kg/ha) was 4.0. The “Postemergence herbicidal rating, ZEAMX” value (ZEAMX (Corn, Field) [6]; rate 0.0620 kg/ha) was 4.0, the “Postemergence herbicidal rating, ZEAMX” value (ZEAMX (Corn, Field) [6]; rate 0.1250 kg/ha) was 4.0 and the “Postemergence herbicidal rating, ZEAMX” value (ZEAMX (Corn, Field) [6]; rate 0.2500 kg/ha) was 5.0. The “herbicidal rating, ECHORC” value ([7]; rate 0.0080 kg/ha) was 0.0, the “herbicidal rating, ECHORC” value ([7]; rate 0.0320 kg/ha) was 3.0 and the “herbicidal rating, ECHORC” value ([7]; rate 0.1250 kg/ha) was 6.0. The “Postemergence herbicidal rating, IPOHE” value ([8]; rate 0.0320 kg/ha) was 9.0, the “Postemergence herbicidal rating, IPOHE” value ([8]; rate 0.0620 kg/ha) was 9.0 and the “Postemergence herbicidal rating, IPOHE” value ([8]; rate 0.1250 kg/ha) was 9.0. For the same compound, the “Postemergence herbicidal rating, IPOHE” value ([8]; rate 0.2500 kg/ha) was 9.0, the “herbicidal rating, CYPSE” value ([9]; rate 0.0080 kg/ha) was 0.0 and the “herbicidal rating, CYPSE” value ([9]; rate 0.0320 kg/ha) was 3.0. The “herbicidal rating, CYPSE” value ([9]; rate 0.1250 kg/ha) was 4.5, the “GALAP preemergence herbicidal rating” value (GALAP (Galium aparine) [10]; Rate 0.0620 kg/ha) was 7.0 and the “GALAP preemergence herbicidal rating” value (GALAP (Galium aparine) [10]; Rate 0.1250 kg/ha) was 9.0. For the same compound, the “GALAP preemergence herbicidal rating” value (GALAP (Galium aparine) [10]; Rate 0.2500 kg/ha) was 9.0, the “Postemergence herbicidal rating, GALAP” value (GALAP (Galium aparine) [11]; rate 0.0320 kg/ha) was 1.0 and the “Postemergence herbicidal rating, GALAP” value (GALAP (Galium aparine) [11]; rate 0.0620 kg/ha) was 1.0. The “Postemergence herbicidal rating, GALAP” value (GALAP (Galium aparine) [11]; rate 0.1250 kg/ha) was 6.0, the “Postemergence herbicidal rating, GALAP” value (GALAP (Galium aparine) [11]; rate 0.2500 kg/ha) was 6.0 and the “Postemergence herbicidal rating, ECHCG” value ([12]; rate 0.0320 kg/ha) was 0.0. The “Postemergence herbicidal rating, ECHCG” value ([12]; rate 0.0620 kg/ha) was 0.0, the “Postemergence herbicidal rating, ECHCG” value ([12]; rate 0.1250 kg/ha) was 0.0 and the “Postemergence herbicidal rating, ECHCG” value ([12]; rate 0.2500 kg/ha) was 0.0. The “herbicidal rating, SAGPY” value ([13]; rate 0.0080 kg/ha) was 0.0, the “herbicidal rating, SAGPY” value ([13]; rate 0.0320 kg/ha) was 2.5 and the “herbicidal rating, SAGPY” value ([13]; rate 0.1250 kg/ha) was 5.5. The “AMBEL preemergence herbicidal rating” value ([14]; Rate 0.0620 kg/ha) was 4.0, the “AMBEL preemergence herbicidal rating” value ([14]; Rate 0.1250 kg/ha) was 5.0 and the “AMBEL preemergence herbicidal rating” value ([14]; Rate 0.2500 kg/ha) was 9.0. For the same compound, the “CASOB preemergence herbicidal rating” value ([15]; Rate 0.0620 kg/ha) was 0.0, the “CASOB preemergence herbicidal rating” value ([15]; Rate 0.1250 kg/ha) was 0.0 and the “CASOB preemergence herbicidal rating” value ([15]; Rate 0.2500 kg/ha) was 3.0. For the same compound, the “CHEAL preemergence herbicidal rating” value ([16]; Rate 0.0620 kg/ha) was 9.0, the “CHEAL preemergence herbicidal rating” value ([16]; Rate 0.1250 kg/ha) was 9.0 and the “CHEAL preemergence herbicidal rating” value ([16]; Rate 0.2500 kg/ha) was 9.0. For the same compound, the “Postemergence herbicidal rating, AMBEL” value ([17]; rate 0.0320 kg/ha) was 4.0, the “Postemergence herbicidal rating, AMBEL” value ([17]; rate 0.0620 kg/ha) was 9.0 and the “Postemergence herbicidal rating, AMBEL” value ([17]; rate 0.1250 kg/ha) was 9.0. For the same compound, the “Postemergence herbicidal rating, AMBEL” value ([17]; rate 0.2500 kg/ha) was 9.0, the “Postemergence herbicidal rating, CASOB” value ([18]; rate 0.0320 kg/ha) was 0.0 and the “Postemergence herbicidal rating, CASOB” value ([18]; rate 0.0620 kg/ha) was 0.0. For the same compound, the “Postemergence herbicidal rating, CASOB” value ([18]; rate 0.1250 kg/ha) was 2.0, the “Postemergence herbicidal rating, CASOB” value ([18]; rate 0.2500 kg/ha) was 2.0 and the “Postemergence herbicidal rating, CHEAL” value ([19]; rate 0.0320 kg/ha) was 3.0. For the same compound, the “Postemergence herbicidal rating, CHEAL” value ([19]; rate 0.0620 kg/ha) was 3.0, the “Postemergence herbicidal rating, CHEAL” value ([19]; rate 0.1250 kg/ha) was 4.0 and the “Postemergence herbicidal rating, CHEAL” value ([19]; rate 0.2500 kg/ha) was 9.0. The “IPOHE preemergence herbicidal rating” value ([20]; Rate 0.0620 kg/ha) was 0.0, the “IPOHE preemergence herbicidal rating” value ([20]; Rate 0.1250 kg/ha) was 2.0 and the “IPOHE preemergence herbicidal rating” value ([20]; Rate 0.2500 kg/ha) was 9.0.
